Reference: US11512079B2, “Heterocycle substituted pyridine derivative antifungal agents” (Amplyx Pharmaceuticals, Inc., priority 2017, dated 2022)
Values after ≈ are worked out from the molar mass of the structure shown. Structures can show the parent of a compound that is named as a salt.

How the values were obtained:
Format in all cases: cell-based
[1] = tested on: Candida albicans 90028; experiment: In vitro antifungal assay (Example IX), microdilution broth, MIC; details: minimum inhibitory concentration (≥50% inhibition), 35° C., 40-48 h, RPMI1640
Protocol: Measurement of antifungal activity: Antifungal activity of the compounds was evaluated in a microdilution broth assay as per Clinical and Laboratory Standard Institute methodology for yeast (for Candida and Cryptococcus) (1) and molds (for Aspergillus and Rhizomucor) (2). Candida albicans 90028, Aspergillus fumigatus MYA3626, Rhizomucor pusillus 46342 and Cryptococcus neoformans H99 strains were obtained from American Type Culture Collection (ATCC).
Preparation of Fungal Suspension. C. albicans 90028 and C. neoformans H99 strains were streaked from frozen stocks at −80° C. onto Sabouraud Dextrose Agar (SDA) plates. These were allowed to grow for 24 h (C. albicans) and 48 h (C. neoformans) at 35° C. before using them in the assay. 5-6 individual colonies were picked and diluted into sterile water to obtain a fungal suspension. The cell density of the suspension was determined and the culture diluted with RPMI1640 medium to obtain a fungal suspension of 2.5×10^3 cells/mL. The suspension was used in the MIC measurement as described below.
Preparation of Compound Stocks and Intermediate Dilutions: The compounds were weighed and DMSO was added to prepare a 10 mg/mL stock. The solutions were mixed by vortexing and sonication at 37° C. for 5-10 mins. The resulting solutions were sterile filtered using a PTFE filter, and aliquoted (12 μL or as needed) and stored at −20° C. Intermediate compound dilutions were prepared in sterile polypropylene tubes in 100% DMSO. The compound stock solution was first diluted in DMSO to obtain a concentration of […] to 0.19 μg/mL.
MIC/MEC Measurement: 99 μL 1 of the fungal suspension in RPMI1640 prepared as above was added to each well of a 96-well round bottom assay plate. 1 μL of the intermediate compound dilutions (200-0.19 μg/mL) were added to wells of the plate. This led to a 100-fold dilution of the intermediate dilutions resulting in a final compound concentration of 2-0.0019 μg/mL in the plate. 1 μL of DMSO was added to “No drug” control wells. The solutions were mixed by shaking on a plate shaker for 10 mins and plates incubated at 35° C. for 40-48 h (C. albicans, A. fumigatus, R. pusillus) and 72 h (Cryptococcus). […] This was validated by thorough mixing and reading at 600 nm on a microplate reader. The minimum concentration that led to shortening of hyphae as compared to hyphal growth in DMSO control wells was determined as the minimum effective concentration (MEC) for A. fumigatus and R. pusillus (as read for echinocandins). The use of the MIC and MEC endpoints against yeasts and molds, respectively has been described by Pfaller M A, Duncanson F, Messer S A, Moet G J, Jones R N, Castanheira M. Antimicrob Agents Chemother. 2011. 55(11):5155-8. In vitro activity of a novel broad-spectrum antifungal, E1210, tested against Aspergillus spp. determined by CLSI and EUCAST broth microdilution methods. Results are shown in Table 2, and the letters indicate the following ranges in μg/mL: […]

[2] = tested on: Aspergillus fumigatus MYA3626; experiment: In vitro antifungal assay (Example IX), microdilution broth, MEC; details: minimum effective concentration (shortening of hyphae), 35° C., 40-48 h, RPMI1640
Protocol: (§1) Measurement of antifungal activity: […] Candida albicans 90028, Aspergillus fumigatus MYA3626, Rhizomucor pusillus 46342 and Cryptococcus neoformans […] strains were obtained from American Type Culture Collection (ATCC). […] (A. fumigatus) and 35° C. (R. pusillus). Water containing 1% Tween was directly added to the agar plate and gently agitated to wet and remove the Aspergillus conidia. For R. pusillus, water was added to the surface and gently massaged to wet and remove the spores. For both species, the conidia or spores and mycelial fragments were collected, followed by removal of mycelium, conidiophores and large clumps of conidia/spores. The resulting spore suspension was counted and diluted into RPMI1640 medium to adjust to a final suspension of 1-2×10^4 spores/mL. The suspension was used in the MEC measurement as described below. […] The compounds were weighed and DMSO was added to prepare a 10 mg/mL stock. The solutions were mixed by vortexing and sonication at 37° C. for 5-10 mins. The resulting solutions were sterile filtered using a PTFE filter, and aliquoted (12 μL or as needed) and stored at -20° C. Intermediate compound dilutions were prepared in sterile polypropylene tubes in 100% DMSO. […] This was validated by thorough mixing and reading at 600 nm on a microplate reader. The minimum concentration that led to shortening of hyphae as compared to hyphal growth in DMSO control wells was determined as the minimum effective concentration (MEC) for A. fumigatus and R. pusillus (as read for echinocandins). The use of the MIC and MEC endpoints against yeasts and molds, respectively has been described by Pfaller M A, Duncanson F, Messer S A, Moet G J, Jones […]. Antimicrob Agents Chemother. 2011. 55(11):5155-8. In vitro activity of a novel broad-spectrum antifungal, […], tested against Aspergillus spp. determined by CLSI and EUCAST broth microdilution methods. Results are shown in Table 2, and the letters indicate the following ranges in μg/mL: […]

[3] = tested on: Rhizomucor pusillus 46342; experiment: as above; details: minimum effective concentration (shortening of hyphae), 35° C., 40-48 h, RPMI1640
Protocol: as §1

SMILES | MIC [1] [µg/mL] | minimal effective concentration [2] [µg/mL] | minimal effective concentration [3] [µg/mL]
Nc1ncccc1-c1cc(Cc2ccc(N3CCOCC3)nc2)no1 [compound 227, 3-(3-((6-morpholinopyridin-3-yl)methyl)isoxazol-5-yl)pyridin-2-amine] | > 1 | > 1 | > 1
CC(C)(COc1ccc(Cc2cc(-c3cccnc3N)on2)cn1)c1ccccc1 [Example 163, 3-(3-((6-(2-methyl-2-phenylpropoxy)pyridin-3-yl)methyl)isoxazol-5-yl)pyridin-2-amine] | > 1 | 0.1 to 1 | 0.1 to 1
CC1=C(Oc2ccc(Cc3cc(-c4cccnc4N)on3)cn2)C(=O)C(C)O1 (stereo not drawn) [compound 71, 4-((5-((5-(2-aminopyridin-3-yl)isoxazol-3-yl)methyl)pyridin-2-yl)oxy)-2,5-dimethylfuran-3(2H)-one] | > 1 | > 1 | > 1
Nc1ncccc1-c1cc(Cc2ccc(OCC(c3ccccc3)c3ccccc3)nc2)no1 [compound 215, 3-(3-((6-(2,2-diphenylethoxy)pyridin-3-yl)methyl)isoxazol-5-yl)pyridin-2-amine] | > 1 | > 1 | > 1
Nc1ncccc1-c1cc(Cc2ccc(Oc3c[n+]([O-])ccn3)cc2)no1 [compound 119, 3-(4-((5-(2-aminopyridin-3-yl)isoxazol-3-yl)methyl)phenoxy)pyrazine 1-oxide] | > 1 | > 1 | > 1
Cc1ncsc1CCOc1ccc(Cc2cc(-c3cccnc3N)on2)cn1 [Example 155, 3-(3-((6-(2-(4-methylthiazol-5-yl)ethoxy)pyridin-3-yl)methyl)isoxazol-5-yl)pyridin-2-amine] | > 1 | > 1 | > 1
Nc1ncccc1-c1cc(Cc2ccc(COc3cccc4ccccc34)cc2)no1 [compound 24, 3-(3-(4-((naphthalen-1-yloxy)methyl)benzyl)isoxazol-5-yl)pyridin-2-amine] | > 1 | > 1 | > 1
Nc1ncccc1-c1cc(Cc2cccc(OCc3cccc(F)c3)n2)no1 [compound 89, 3-(3-((6-((3-fluorobenzyl)oxy)pyridin-2-yl)methyl)isoxazol-5-yl)pyridin-2-amine] | > 1 | > 1 | > 1
Cc1nccc(NCc2ccc(Cc3cc(-c4cccnc4N)on3)cc2)n1 [compound 33, N-(4-((5-(2-aminopyridin-3-yl)isoxazol-3-yl)methyl)benzyl)-2-methylpyrimidin-4-amine] | > 1 | > 1 | > 1

Further lines, with some results ahead:

MIC [1] [µg/mL] | SMILES | minimal effective concentration [2] [µg/mL] | minimal effective concentration [3] [µg/mL]
> 1 | N#CCNCc1ccc(Cc2cc(-c3cccnc3N)on2)cc1 [compound 94, 2-((4-((5-(2-aminopyridin-3-yl)isoxazol-3-yl)methyl)benzyl)amino)acetonitrile] | > 1 | > 1
> 1 | Nc1ncccc1-c1cc(Cc2ccc(CNC3CCCCNC3=O)cc2)no1 (stereo not drawn) [compound 96, 3-((4-((5-(2-aminopyridin-3-yl)isoxazol-3-yl)methyl)benzyl)amino)azepan-2-one] | > 1 | > 1
> 1 | Nc1ncccc1-c1cc(Cc2ccc(N3CCCC3c3ccccc3)nc2)no1 (stereo not drawn) [compound 229, 3-(3-((6-(2-phenylpyrrolidin-1-yl)pyridin-3-yl)methyl)isoxazol-5-yl)pyridin-2-amine] | > 1 | > 1
0.1 to 1 (≈ 0.252 to 2.52 µM) | Nc1ncccc1-c1cc(Cc2ccc(CNc3cnc4[nH]ccc4c3)cc2)no1 [compound 7, N-(4-((5-(2-aminopyridin-3-yl)isoxazol-3-yl)methyl)benzyl)-1H-pyrrolo[2,3-b]pyridin-5-amine] | 0.1 to 1 | > 1
0.1 to 1 (≈ 0.244 to 2.44 µM) | Nc1ncccc1-c1cc(Cc2ccc(Cc3cccc(C(F)(F)F)n3)cc2)no1 [Example 151, 3-(3-(4-((6-(trifluoromethyl)pyridin-2-yl)methyl)benzyl)isoxazol-5-yl)pyridin-2-amine] | 0.1 to 1 | 0.1 to 1
0.01 to 0.1 (≈ 0.029 to 0.29 µM) | Cn1ccc(Cc2ccc(Cc3cc(-c4cccnc4N)on3)cc2)n1 [Example 152, 3-(3-(4-((1-methyl-1H-pyrazol-3-yl)methyl)benzyl)isoxazol-5-yl)pyridin-2-amine] | 0.01 to 0.1 | > 1
0.1 to 1 (≈ 0.235 to 2.35 µM) | Nc1ncccc1-c1cc(Cc2ccc(OCCc3cc(F)c(F)cc3F)nc2)no1 [Example 158, 3-(3-((6-(2,4,5-trifluorophenethoxy)pyridin-3-yl)methyl)isoxazol-5-yl)pyridin-2-amine] | 0.1 to 1 | > 1
0.1 to 1 | Nc1ncccc1-c1cc(Cc2ccc(CCSCCOC=O)cc2)no1 [compound 98, 2-((4-((5-(2-aminopyridin-3-yl)isoxazol-3-yl)methyl)phenethyl)thio)ethyl formate] | 0.1 to 1 | > 1
0.1 to 1 (≈ 0.25 to 2.5 µM) | CCCc1cccc(OCc2ccc(Cc3cc(-c4cccnc4N)on3)cc2)c1 [compound 103, 3-(3-(4-((3-propylphenoxy)methyl)benzyl)isoxazol-5-yl)pyridin-2-amine] | 0.1 to 1 | > 1
0.01 to 0.1 (≈ 0.0262 to 0.262 µM) | Nc1ncccc1-c1cc(Cc2ccc(Cn3cc4ccccc4n3)cc2)no1 [Example 171, 3-(3-(4-((2H-indazol-2-yl)methyl)benzyl)isoxazol-5-yl)pyridin-2-amine] | 0.1 to 1 | 0.1 to 1
0.1 to 1 (≈ 0.296 to 2.96 µM) | Nc1ncccc1-c1cc(Cc2ccc(OCC3COC3)nc2)no1 [compound 44, 3-(3-((6-(oxetan-3-ylmethoxy)pyridin-3-yl)methyl)isoxazol-5-yl)pyridin-2-amine] | > 1 | > 1
0.1 to 1 (≈ 0.255 to 2.55 µM) | Nc1ncccc1-c1cc(Cc2ccc(CNc3cc(F)cc(F)c3)cc2)no1 [Example 167, 3-(3-(4-(((3,5-difluorophenyl)amino)methyl)benzyl)isoxazol-5-yl)pyridin-2-amine] | 0.01 to 0.1 | 0.1 to 1
